{"source": "patent US5464617A", "about": "“β-lactam compounds” (Hoffmann-La Roche Inc., priority 1994, dated 1995)", "key": {"[1]": {"system": "Citrobacter freundii 1982", "experiment": "MIC in vitro of a 1:4 combination of ceftriaxone with a compound of formula I (Test D)", "format": "cell-based", "conditions": "Table 4; test D, 1:4 combination of ceftriaxone with the compound", "protocol": "The minimum inhibitory concentration in vitro ([…]) of a 1:4 combination of ceftriaxone with a compound of formula I against Citrobacter freundii 1982 was measured and compiled in Table 2 hereinafter."}, "E. coli 1346": {"system": "E. coli 1346", "experiment": "Antibacterial activity of the products per se, serial dilution method in liquid medium (Test E)", "format": "cell-based", "conditions": "Table 4; test E, product per se", "text": "The antibacterial activity of the products per se is illustrated on the basis of Table 3 hereinafter, the minimum inhibitory concentration […] in vitro against E. coli 1346 being determined using the serial dilution method in liquid medium: […]"}}, "note": "Structures can show the parent of a compound that is named as a salt."}
{"smiles": "Cc1nnc(SCC2=C(C(=O)O)N3C(=O)[C@@H]4[C@H]3[C@H](C2)CN4C(=O)Nc2ccc(O)cc2)s1", "note": "[Example 64, (1aS,3aR,6bR)-2-(4-Hydroxy-phenylcarbamoyl)-5-(5-methyl-1,3,4-thiadiazol-2-ylsulphanylmethyl)-1-oxo-1a,2,3,3a,4,6b-hexahydro-1H-2,6a-diazacyclobut[cd]indene-6-carboxylic acid sodium salt]", "values": [{"measurement": "MIC C. freundii 1982 (D)", "setting": "[1]", "result": 0.5, "unit": "µg/mL"}, {"measurement": "MIC E. coli 1346 (E)", "setting": "E. coli 1346", "result": "> 32", "unit": "µg/mL"}]}
{"smiles": "O=C(O)C1=C(CSc2nc(-c3cccnc3)cs2)C[C@@H]2CN[C@@H]3C(=O)N1[C@H]23", "note": "[Example 66, (1aS,3aR,6bR)-1-Oxo-5-(4-pyridin-3-yl-thiazol-2-ylsulphanylmethyl)-1a,2,3,3a,4,6b-hexahydro-1H-2,6a-diazacyclobut[cd]indene6-carboxylic acid trifluoroacetate]", "values": [{"measurement": "MIC C. freundii 1982 (D)", "setting": "[1]", "result": 8, "unit": "µg/mL"}, {"measurement": "MIC E. coli 1346 (E)", "setting": "E. coli 1346", "result": 4, "unit": "µg/mL"}]}
{"smiles": "NC(=O)Cn1nnnc1SCC1=C(C(=O)O)N2C(=O)[C@H]3NC[C@@H](C1)[C@H]32", "note": "[Example 69, (1aS,3aR,6 bR)-5-(1-Carbamoylmethyl-1H-tetrazol-5-ylsulphanylmethyl)-1-oxo-1a,2,3,3a,4,61>hexahydro-1H-2,6a-diazacyclobut[cd]indene-6-carboxylic acid trifluoroacetate]", "values": [{"measurement": "MIC C. freundii 1982 (D)", "setting": "[1]", "result": 0.5, "unit": "µg/mL"}, {"measurement": "MIC E. coli 1346 (E)", "setting": "E. coli 1346", "result": 2, "unit": "µg/mL"}]}
{"smiles": "O=C(O)C1=C(CSc2ncccn2)C[C@@H]2CN[C@@H]3C(=O)N1[C@H]23", "note": "[Example 71, (1aS,3aR,6bR)-1-Oxo-5-(pyrimidin-2-ylsulphanylmethyl)-1a,2,3,3a,4,6b-hexahydro-1H-2,6a-diazacyclobut[cd]indene-6-carboxylic acid trifluoroacetate]", "values": [{"measurement": "MIC C. freundii 1982 (D)", "setting": "[1]", "result": 2, "unit": "µg/mL"}, {"measurement": "MIC E. coli 1346 (E)", "setting": "E. coli 1346", "result": 8, "unit": "µg/mL"}]}
{"smiles": "CNC(=O)Cn1nnnc1SCC1=C(C(=O)O)N2C(=O)[C@H]3NC[C@@H](C1)[C@H]32", "note": "[Example 73, (1aS,3aR,6bR)-5-(1-Methylcarbamoylmethyl-1H-tetrazol-5-ylsulphahylmethyl)-1-oxo-1a,2,3,3a,4,6b-hexahydro-1H-2,6 a-diazacyclobut[cd]indene-6-carboxylicacid trifluoroacetate]", "values": [{"measurement": "MIC C. freundii 1982 (D)", "setting": "[1]", "result": 1, "unit": "µg/mL"}, {"measurement": "MIC E. coli 1346 (E)", "setting": "E. coli 1346", "result": 1, "unit": "µg/mL"}]}
{"smiles": "O=C(O)C1=C(CSc2nc[nH]n2)C[C@@H]2CN[C@@H]3C(=O)N1[C@H]23", "note": "[Example 75, (1aS,3aR,6 bR)-1-Oxo-5-(1H-1,2,4-triazol-3-ylsulphanylmethyl)-1a,2,3,3a,4,6b-hexahydro-1H-2,6a-diazacyclobut[cd]indene-6-carboxylic acid trifluoroacetate]", "values": [{"measurement": "MIC C. freundii 1982 (D)", "setting": "[1]", "result": 1, "unit": "µg/mL"}, {"measurement": "MIC E. coli 1346 (E)", "setting": "E. coli 1346", "result": 4, "unit": "µg/mL"}]}
{"smiles": "O=C(Cn1nnnc1SCC1=C(C(=O)O)N2C(=O)[C@H]3NC[C@@H](C1)[C@H]32)Nc1ccc(O)cc1", "note": "[Example 77, (1aS,3aR,6bR)-5-[1-(4-Hydroxy-phenylcarbamoylmethyl)-1H-tetrazol-5-ylsulphanylmethyl]-1-oxo-1a,2,3,3a,4,6b-hexahydro-1H-2,6a-diazacyclobut[cd]indene-6-carboxylic acid trifluoroacetate]", "values": [{"measurement": "MIC C. freundii 1982 (D)", "setting": "[1]", "result": 2, "unit": "µg/mL"}, {"measurement": "MIC E. coli 1346 (E)", "setting": "E. coli 1346", "result": 2, "unit": "µg/mL"}]}
{"smiles": "O=C(Cn1nnnc1SCC1=C(C(=O)O)N2C(=O)[C@H]3NC[C@@H](C1)[C@H]32)NCCc1ccccc1", "note": "[Example 79, (1aS,3aR,6bR)-1-Oxo-5-[1-(phenethylcarbamoylmethyl)-1H-tetrazol-5-ylsulphanylmethyl]-1a,2,3,3a,4,6b-hexahydro-1H-2,6a-diazacyclobut[cd]indene-6-carboxylic acid trifluoroacetate]", "values": [{"measurement": "MIC C. freundii 1982 (D)", "setting": "[1]", "result": 4, "unit": "µg/mL"}, {"measurement": "MIC E. coli 1346 (E)", "setting": "E. coli 1346", "result": 2, "unit": "µg/mL"}]}
{"smiles": "[N-]=[N+]=NCC1=C(C(=O)O)N2C(=O)[C@H]3NC[C@@H](C1)[C@H]32", "note": "[Example 81, (1aS,3aR,6bR)-5-Azidomethyl-1-oxo-1a,2,3,3a,4,6b-hexahydro-1H-2,6a-diazacyclobut[cd]indene-6-carboxylic acid trifluoroacetate]", "values": [{"measurement": "MIC C. freundii 1982 (D)", "setting": "[1]", "result": 1, "unit": "µg/mL"}, {"measurement": "MIC E. coli 1346 (E)", "setting": "E. coli 1346", "result": 1, "unit": "µg/mL"}]}
{"smiles": "[N-]=[N+]=NCC1=C(C(=O)O)N2C(=O)[C@@H]3[C@H]2[C@H](C1)CN3C(=O)Nc1ccc(O)cc1", "note": "[Example 82, (1aS,3aR,6bR)-5-Azidomethyl-2-(4-hydroxy-phenylcarbamoyl)-1-oxo-1a,2,3,3a,4,6b-hexahydro-1H-2,6a-diazacyclobut[cd]indene-6-carboxylic acid sodium salt]", "values": [{"measurement": "MIC C. freundii 1982 (D)", "setting": "[1]", "result": 0.25, "unit": "µg/mL"}, {"measurement": "MIC E. coli 1346 (E)", "setting": "E. coli 1346", "result": 16, "unit": "µg/mL"}]}
{"smiles": "CC(=O)NCC1=C(C(=O)O)N2C(=O)[C@H]3NC[C@@H](C1)[C@H]32", "note": "[Example 84, (1aS,3aR, 6bR)-5-Acetylaminomethyl-1-oxo-l a,2,3,3a,4,6b-hexahydro-1H-2,6a-diazacyclobut[cd]indene-6-carboxylic acid trifluoroacetate]", "values": [{"measurement": "MIC C. freundii 1982 (D)", "setting": "[1]", "result": 4, "unit": "µg/mL"}, {"measurement": "MIC E. coli 1346 (E)", "setting": "E. coli 1346", "result": 2, "unit": "µg/mL"}]}
{"smiles": "CC(=O)NCC1=C(C(=O)O)N2C(=O)[C@@H]3[C@H]2[C@H](C1)CN3C(=O)Nc1ccc(O)cc1", "note": "[Example 85, (1aS,3aR,6bR)-5-Acetylaminomethyl-2-(4-hydroxy-phenylcarbamoyl)-1-oxo-1a,2,3,3a,4,6b-hexahydro-1H-2,6a-diazacyclobut[cd]indene-6-carboxylic acid sodium salt]", "values": [{"measurement": "MIC C. freundii 1982 (D)", "setting": "[1]", "result": 0.5, "unit": "µg/mL"}, {"measurement": "MIC E. coli 1346 (E)", "setting": "E. coli 1346", "result": "> 32", "unit": "µg/mL"}]}
{"smiles": "CC(=O)NCC1=C(C(=O)O)N2C(=O)[C@@H]3[C@H]2[C@H](C1)CN3C(=O)C(F)(F)F", "note": "[Example 86, (1aS,3aR,6bR)-5-Acetylaminomethyl-1-oxo-2-trifluoroacetyl-1a,2,3,3a,4,6b-hexahydro-1H-2,6a-diazacyclobut[cd]indene-6-carboxylic acid sodium salt]", "values": [{"measurement": "MIC C. freundii 1982 (D)", "setting": "[1]", "result": 2, "unit": "µg/mL"}, {"measurement": "MIC E. coli 1346 (E)", "setting": "E. coli 1346", "result": 16, "unit": "µg/mL"}]}
{"smiles": "CS(=O)(=O)NCC1=C(C(=O)O)N2C(=O)[C@H]3NC[C@@H](C1)[C@H]32", "note": "[Example 87, (1aS,3aR,6bR)-5-Methylsulphonylaminomethyl-1-oxo-1a,2,3,3a,4,6b-hexahydro-1H-2,6a-diazacyclobut[cd]indene-6-carboxylic acid trifluoroacetate]", "values": [{"measurement": "MIC C. freundii 1982 (D)", "setting": "[1]", "result": 4, "unit": "µg/mL"}, {"measurement": "MIC E. coli 1346 (E)", "setting": "E. coli 1346", "result": 16, "unit": "µg/mL"}]}
{"smiles": "O=C(Nc1ccc(O)cc1)OCC1=C(C(=O)O)N2C(=O)[C@H]3NC[C@@H](C1)[C@H]32", "note": "[Example 89, (1aS,3aR,6bR)-5-(4-Hydroxy-phenylcarbamoyloxymethyl)-1-oxo-1a,2,3,3a,4,6b-hexahydro-1H-2,6a-diazacyclobut[cd]indene-6-carboxylic acid trifluoroacetate]", "values": [{"measurement": "MIC C. freundii 1982 (D)", "setting": "[1]", "result": 2, "unit": "µg/mL"}, {"measurement": "MIC E. coli 1346 (E)", "setting": "E. coli 1346", "result": 4, "unit": "µg/mL"}]}
{"smiles": "O=C(NCC(F)(F)F)OCC1=C(C(=O)O)N2C(=O)[C@H]3NC[C@@H](C1)[C@H]32", "note": "[Example 91, (1aS,3aR,6bR)-1-Oxo-5-(2,2,2-trifluoroethylcarbamoyloxymethyl)-1a,2,3,3a,4,6b-hexahydro-1H-2,6a-diazacyclobut[cd]indene-6-carboxylic acid trifluoroacetate]", "values": [{"measurement": "MIC C. freundii 1982 (D)", "setting": "[1]", "result": 2, "unit": "µg/mL"}, {"measurement": "MIC E. coli 1346 (E)", "setting": "E. coli 1346", "result": 4, "unit": "µg/mL"}]}
{"smiles": "O=C(NC1CC1)OCC1=C(C(=O)O)N2C(=O)[C@H]3NC[C@@H](C1)[C@H]32", "note": "[Example 93, (1aS,3aR,6bR)-5-Cyclopropylcarbamoyloxymethyl-1-oxo-1a,2,3,3a,4,6b-hexahydro-1H-2,6a-diazacyclobut[cd]indene-6-carboxylicacid trifluoroacetate]", "values": [{"measurement": "MIC C. freundii 1982 (D)", "setting": "[1]", "result": 2, "unit": "µg/mL"}, {"measurement": "MIC E. coli 1346 (E)", "setting": "E. coli 1346", "result": 8, "unit": "µg/mL"}]}
{"smiles": "NC(=O)CNC(=O)OCC1=C(C(=O)O)N2C(=O)[C@H]3NC[C@@H](C1)[C@H]32", "note": "[Example 95, (1aS,3aR,6bR)-5-Carbamoylmethylcarbamoyloxymethyl-1-oxo-1a,2,3,3a,4,6b-hexahydro-1H-2,6a-diazacyclobut[cd]indene-6-carboxylic acid trifluoroacemte]", "values": [{"measurement": "MIC C. freundii 1982 (D)", "setting": "[1]", "result": 0.5, "unit": "µg/mL"}, {"measurement": "MIC E. coli 1346 (E)", "setting": "E. coli 1346", "result": 4, "unit": "µg/mL"}]}
{"smiles": "CNC(=O)OCC1=C(C(=O)O)N2C(=O)[C@H]3NC[C@@H](C1)[C@H]32", "note": "[Example 97, (1aS,3aR,6bR)-5-Methylcarbamoyloxymethyl-1-oxo-1a,2,3,3a,4,6b-hexahydro-1H-2,6a-diazacyclobut[cd]indene-6-carboxylic acid trifluoroacetate]", "values": [{"measurement": "MIC C. freundii 1982 (D)", "setting": "[1]", "result": 1, "unit": "µg/mL"}, {"measurement": "MIC E. coli 1346 (E)", "setting": "E. coli 1346", "result": 4, "unit": "µg/mL"}]}
{"smiles": "O=C(NCc1ccncc1)OCC1=C(C(=O)O)N2C(=O)[C@H]3NC[C@@H](C1)[C@H]32", "note": "[Example 99, (1aS,3aR,6bR)-1-Oxo-5-(pyridin-4-ylmethylcarbamoyloxymethyl)-1a,2,3,3a,4,6b-hexahydro-1H-2,6a-diazacyclobut[cd]indene-6-carboxylic acid trifluoroacetate]", "values": [{"measurement": "MIC C. freundii 1982 (D)", "setting": "[1]", "result": 2, "unit": "µg/mL"}, {"measurement": "MIC E. coli 1346 (E)", "setting": "E. coli 1346", "result": 4, "unit": "µg/mL"}]}
{"smiles": "O=C(NCc1ccc(O)cc1)OCC1=C(C(=O)O)N2C(=O)[C@H]3NC[C@@H](C1)[C@H]32", "note": "[Example 101, (1aS,3aR,6bR)-5-[(4-Hydroxy-benzyl)-carbamoyloxymethyl]-1-oxo-1a,2,3,3a,4,6b-hexahydro-1H-2,6a-diazacyclobut[cd]indene-6-carboxylic acid trifluoroacetate]", "values": [{"measurement": "MIC C. freundii 1982 (D)", "setting": "[1]", "result": 1, "unit": "µg/mL"}, {"measurement": "MIC E. coli 1346 (E)", "setting": "E. coli 1346", "result": 2, "unit": "µg/mL"}]}
{"smiles": "CN1CCN(C(=O)OCC2=C(C(=O)O)N3C(=O)[C@H]4NC[C@@H](C2)[C@H]43)CC1", "note": "[Example 103, (1aS,3aR,6bR)-5-(4-Methyl-piperazin-1-ylcarbonyloxymethyl)-1-oxo-1a,2,3,3a,4,6b-hexahydro-1H-2,6a-diazacydobut[cd]indene-6-carboxylic acid trifluoroacetate]", "values": [{"measurement": "MIC C. freundii 1982 (D)", "setting": "[1]", "result": 2, "unit": "µg/mL"}, {"measurement": "MIC E. coli 1346 (E)", "setting": "E. coli 1346", "result": 1, "unit": "µg/mL"}]}
